According to patent US5661154A (priority 1988, dated 1997):
“Also recorded” adds a separate entry of the source. Where two headings read alike, the source gives them in different places.

Experiments:
[1] = system: serum uric acid; test: Uric acid decreasing effect in test persons with hyperuricaemia; type: in vivo; conditions: for decrease of the serum uric acid level: daily 384 mg sodium oxypurinol or 300 mg allopurinol, two weeks; for decrease of the serum uric acid level (in words): sodium oxypurinol compared with allopurinol
[2] = portion of allopurinol; cited from earlier work
[3] = cited from earlier work
[4] = system: xanthine oxidase; conditions: cited from earlier work; for inhibiting the enzyme xanthine oxidase: allopurinol and oxypurinol compared with each other
[5] = Stability of the salt on air and on drying; type: physicochemical
Method: The salt is stable on air and endures drying temperatures up to about 70° C.

[6] = Solubility; type: physicochemical; conditions: methanol/water 3:1, organic solvent or mixture; 25° C.; read-out: solubility in methanol/water (3:1 by vol.)
Description: (§1) Said sodium salt is monosodium oxypurinol monohydrate. The salt is white and crystallizes in fine needles.

[7] = pH value of aqueous solution; type: physicochemical; conditions: 5% aqueous solution
Description: However, from the examples it can be seen that not the pure sodium salt was used, but a mixture of salt and excess sodium hydroxide solution. This follows especially from the pH values of about 1 to 2% solutions, being 11.5 or 12.0. The sodium salt having been prepared by the applicant in pure and crystalline form for the first time has a pH value of 9.7 in 5% aqueous solution, and crystallizes as the monohydrate.
as §1

| endures drying temperatures up to ([5]; drying) | stability on air ([5]; on air) | solubility [6] | pH value [7] | SMILES | decrease of the serum uric acid level [1] | decrease of the serum uric acid level (in words) [1] | excreted via kidneys [2] | resorbable upon peroral application ([3]; in vivo) | inhibiting the enzyme xanthine oxidase [4] | activity of allopurinol itself ([4]; therapeutic effect only after metabolizing to oxypurinol) | resorbable upon peroral application ([3]; from galenic formulations, per os) | decrease of the serum uric acid level (in words) ([1]; monohydrate) |
| --- | --- | --- | --- | --- | --- | --- | --- | --- | --- | --- | --- | --- |
| – | – | – | – | Oc1ncnc2[nH]ncc12 [allopurinol] | 2.0 mg/100 ml | comparable; also recorded: approximately equal decrease | 3 to 10% | well resorbable | equally strongly | little activity itself | – | – |
| – | – | – | – | Oc1nc(O)c2cn[nH]c2n1 [oxypurinol, 4,6-dihydroxypyrazolo[3,4-d]pyrimidine] | – | – | – | – | equally strongly | – | no success was achieved in finding a galenic formulation being sufficiently resorbable per os | – |
| about 70 °C | stable on air | ~2000 µg/mL | 9.7 | Oc1nc(O)c2cn[nH]c2n1 [sodium oxypurinol, monosodium oxypurinol monohydrate] | 2.1 mg/100 ml | – | – | – | – | – | – | comparable; also recorded: approximately equal decrease |
